Results as given in US20090172826A1, “Model System for TCR (ZETA) Chain Downregulation” (priority 2003, published 2009).

What was measured:
splenic T cells [1] = test: CFSE division of splenic T cells from treated mice after ex vivo activation; assay type: in vivo, mouse; conditions: BALB/c mice
splenic T cells [2] = test: BrdU incorporation in Thy1.2+ splenic T cells from treated mice after ex vivo activation; set-up: species or system mouse; conditions: for percentage of BrdU+ T cells of total T cells: BALB/c mice
TCR ζ chain [3] = test: TCR ζ chain expression in T cells of antigen-treated mice (immunoblot, FACS, confocal); assay type: in vivo, mouse; conditions: full repeated-injection regimen, wild-type mice, versus control mice
[4] = tested on: splenocytes isolated from P. gingivalis-treated mice; assay type: cell-based, mouse; conditions: NH4Cl 20 mM 20 h or bafilomycin A1 5 h at 37° C.
TCR ζ chain [5] = test: In vitro incubation of isolated T cells and non-T cells with IFN-γ or anti-IFN-γ, ζ chain FACS; assay type: cell-based, mouse; conditions: IFN-γ 50 U/ml, 24 h, with or without control non-T cells
Method: T cells alone or mixed with the indicated non-T cell populations were incubated in vitro for 24 h in the presence or absence of IFN-γ (50 U/ml). Cells were stained for cell surface Thy 1.2 and for total ζ chain expression, as described in FIG. 1A-F, and ζ chain expression is shown.
To examine whether IFN-γ directly or indirectly affects all T cell populations in the spleen, T cells from control mice were exposed to IFN-γ in the presence or absence of control non-T cell populations in vitro.

[6] = Specific serum IgG1 and IgG2a antibodies by ELISA; assay type: in vivo, mouse; conditions: serum at day +9
Text: FIG. 6A: To determine the type of response, mice were bled at day +9 of the experiment and the titer and isotype of the specific antibodies was established by ELISA. Endpoint titers are expressed as the reciprocal values of the last dilution with an OD of 0.1 at 405 nm above maximal absorbance values of samples collected from non-immunized mice.
(§1) Serum samples were collected at day +9 of the experiment and analyzed by ELISA for the levels of P.g.- or OVA-specific IgG1 and IgG2a antibodies as previously described [Houri-Haddad et al. (2000) id ibid.]. IFN-γ and IL-10 concentrations in the chamber exudates were determined at 4 and 24 h, respectively after the third P.g. injection by two-site ELISA [Frolov, I. et al. (1998) Immunology 93, 323-8].

IL-10 = IL-10 in chamber exudates by ELISA; assay type: in vivo, mouse; conditions: 24 h after the third injection; P. gingivalis- versus OVA-treated mice
Method: (§2) The results are presented as the mean value of the individual mice in each treatment group. (n.d.) not detectable values of IFN-γ in the OVA-treated mice.
as §1

IFN-γ = IFN-γ in chamber exudates by ELISA; assay type: in vivo, mouse; conditions: 4 h after the third injection
Method: as §2, §1

splenocytes = test: Mitogen-induced splenocyte proliferation, 3H-thymidine uptake; assay type: in vivo, mouse; conditions: percent of response in control mice, FIG. 6c
Method: For mitogen-induced cell proliferation [Leshem, B. et al. (1999) J Immunol Methods 223, 249-54], splenocytes (2×10^6 cells/ml) were cultured in the presence of anti-CD3ε (145-2C11), 2.5 μg/ml concanavalin A (Con A, Biomakor, Israel), 2 ng/ml phorbol 12-myristatel3-acetate (PMA, Sigma) combined with 0.2 μM calcium ionophore (Sigma), or in medium alone. Following 48 h of incubation at 37° C., 1 μCi of [^3H]-thymidine was added to each well. Cells were harvested 8 h later using a Tomtec (USA) cell harvester and counted in a MicroBeta scintillation counter (Wallac, Finland).

[7] = anti-CD3 and anti-CD28, 60 hours
[8] = activation with PMA and ionophore
[9] = activation with anti-CD3 and anti-CD28

Molecule | percentage of CFSE-labeled splenic T cells which divided 1-5 times (splenic T cells [1]; PMA and ionophore, 60 hours) [%] | percentage of CFSE-labeled splenic T cells which divided 1-5 times (splenic T cells [1]; [7]) [%] | percentage of BrdU+ T cells of total T cells (splenic T cells [2]; activation with ConA) [%] | percentage of BrdU+ T cells of total T cells (splenic T cells [2]; [8]) [%] | percentage of BrdU+ T cells of total T cells (splenic T cells [2]; [9]) [%] | ζ chain expression in splenocytes / splenic T cells (TCR ζ chain [3]) | ζ protein expression after incubation with lysosome inhibitor [4] | further results
5′-TGACTGTGAACGTTCGAGATGA-3′ [CpG-ODNs] | 57 | 6 | 39 | 80 | 9 | significant ζ chain down-regulation | – | T cell proliferation by BrdU incorporation (splenic T cells [2]; TCR-mediated stimuli (anti-CD3, Con A), compared to controls): significantly lower response
5′-TGACTGTGAAGGTTGGAGATGA-3′ (listed as DNA, chemistry not given here) [mutated CpG-ODNs, ID; NO.2] | 80 | 84 | 83 | 57 | 71 | – | – | –
Cl.N [NH4Cl] | – | – | – | – | – | – | largely restored ζ protein expression | –
CO/C1=C\C(C)=C\[C@@H](C)[C@@H](O)[C@@H](C)C/C(C)=C/C=C/[C@H](OC)[C@@H]([C@@H](C)[C@@H](O)[C@H](C)[C@@]2(O)C[C@@H](O)[C@H](C)[C@@H](C(C)C)O2)OC1=O [bafilomycin A] | – | – | – | – | – | – | largely restored ζ protein expression | –
IFN-γ | – | – | – | – | – | – | – | ζ chain expression in control T cells exposed in vitro (TCR ζ chain [5]): did not affect ζ chain expression
OVA: chicken ovalbumin adsorbed to Al(OH)3 (Alum), then in PBS; elicits a TH2 response (protein, UniProt P01012 2-386, looked up, adsorbed to alum, chicken ovalbumin adsorbed to Al(OH)3 (Alum), then in PBS; elicits a TH2 response) Ovalbumin: GSIGAASMEFCFDVFKELKVHHANENIFYCPIAIMSALAMVYLGAKDSTRTQINKVVRFDKLPGFGDSIEAQCGTSVNVHSSLRDILNQITKPNDVYSFSLASRLYAEERYPILPEYLQCVKELYRGGLEPINFQTAADQARELINSWVESQTNGIIRNVLQPSSVDSQTAMVLVNAIVFKGLWEKAFKDEDTQAMPFRVTEQESKPVQMMYQIGLFRVASMASEKMKILELPFASGTMSMLVLLPDEVSGLEQLESIINFEKLTEWTSSNVMEERKIKVYLPRMKMEEKYNLTSVLMAMGITDVFSSSANLSGISSAESLKISQAVHAAHAEINEAGREVVGSAEAGVDAASVSEEFRADHPFLFCIKHIATNAVLFFGRCVSP | – | – | – | – | – | did not induce profound ζ downregulation | – | specific serum antibodies, IgG1 and IgG2a isotype [6]: of the IgG1 isotype and not of the IgG2a isotype; IL-10 concentration in chamber exudates (IL-10): no great difference; IFN-γ concentration in chamber exudates (IFN-γ): practically undetectable; function (proliferative response) of T cells in the spleen (splenocytes): normal function
